In patent publication US20090270440A1, “BIOAVAILABILITY OF ACTIVE SUBSTANCES HAVING AN AMIDINE FUNCTION IN MEDICAMENTS” (Drite Patentportfolio Beteilligungsgesellschaft mbH & Co. KG, priority 2006, published 2009):

Assays:
[1] = literature value (Clement, Lopian 2003); cited from earlier work
[2] = Oral bioavailability and metabolism study of N,N′-dihydroxybenzamidine in pigs (plasma levels by HPLC); assay type: in vivo
Description: Metabolism of N,N′-dihydroxybenzamidine to benzamidine in vivo proceeds in the following way:
In order to be able to ascertain the exact dosage of the substances, the animals were weighed once a week. The daily weight gain was calculated from the data. The substances to be administered orally were mixed into the moistened, ground feed concentrate. The substances given intravenously were dissolved in 0.9% NaCl solution in order to avoid hemolysis.
Directly before injection into the indwelling vein catheter, the solution was filtered in order to avoid induction of thrombus formation by any undissolved portions. The injection was followed by flushing with at least 10 ml of 0.9% NaCl solution again. The substance was administered in the morning on each occasion. A washout period took place the next day on each occasion in order to ensure complete excretion of the medicinal substance.
The orally administered doses of N,N′-dihydroxy-benzamidine were in each case 10 mg/kg of body weight (BW). The concentration of the substances administered intravenously as bolus was 2 mg/kg BW. Benzamidine and N,N′-dihydroxybenzamidine were likewise administered intravenously. The samples were taken at previously fixed times. The experimental period for one condition lasted one day. The blood samples were obtained over a period of 24 hours after administration of the substance. After oral administration, the samples were taken after 0, 30, 60, 90, 120, 150, 180, 240, 360, 480, 720 and 1440 minutes. After intravenous administration, an additional sample was taken after 5 and 15 minutes. The whole blood obtained was transferred into heparin tubes and centrifuged (4° C., 10 min, 1500 g). After centrifugation, about 4 ml of plasma were removed as supernatant, pipetted into Eppendorf vessels and frozen at −80° C. The plasma samples were slowly thawed and then centrifuged at 7000 rpm for 3 minutes, worked up by solid-phase extraction and passed on for HPLC.

Compound	Oral bioavailability [1]	Reduction of prodrug to the active form (amidine) in the blood ([2]; after oral administration)	Metabolite benzamide oxime in plasma after injection ([2]; i.v. 2 mg/kg BW)	Reduction of prodrug to the amidine after injection ([2]; i.v. 2 mg/kg BW)	Absorption after oral administration ([2]; oral 10 mg/kg BW)
CCOC(=O)CN[C@@H](C(=O)N1CC[C@H]1C(=O)NCc1ccc(/C(N)=N\O)cc1)C1CCCCC1 [ximelagatran]	14%				
O/N=C(/NO)c1ccccc1 [N,N′-dihydroxybenzamidine]		rapidly reduced to the active form	benzamide oxime also being detectable	rapidly reduced to the amidine	almost completely absorbed
N=C(N)c1ccc(CNC(=O)[C@@H]2CCN2C(=O)[C@H](NCC(=O)O)C2CCCCC2)cc1 [melagatran]	7%				
